Data: article PMC9036627, “Global update on the susceptibility of human influenza viruses to neuraminidase inhibitors, 2013–2014” (Antiviral research, 2015)

What was measured:
[1] = system: neuraminidase (NA) of B/Yamagata-lineage viruses; type: biochemical, influenza B/Yamagata-lineage virus; conditions: for IC50 fold-change compared to reference median IC50 values: B/Yamagata-lineage, no NA amino acid substitution (None), n=3, range
[2] = system: neuraminidase (NA) of B/Victoria-lineage viruses; type: biochemical, influenza B/Victoria-lineage virus; conditions: B/Victoria-lineage, no NA amino acid substitution (None); n=3; range
[3] = system: neuraminidase (NA) of B/Yamagata-lineage viruses; parameters: method as in Oakley et al., 2010; conditions: B/Yamagata-lineage virus, observed before, ref Oakley et al., 2010; cited from earlier work

## [H]/N=C(\N)N[C@H]1C=C(C(=O)O)O[C@@H]([C@H](OC)[C@H](O)CO)[C@@H]1NC(C)=O [Laninamivir, laninamivir]
[1]
  Included in phenotypic analysis: inhibition category (HRI/RI/NI): Yes (RI to zanamivir, oseltamivir, peramivir and laninamivir) (key: NI < 5-fold; RI 5 to 50-fold; HRI > 50-fold)
  IC50 fold-change compared to reference median IC50 values: 0.6–5.1 fold
[2]
  IC50 fold-change compared to reference median IC50 values: 0.7–4.7 fold

## CCC(CC)[C@H](NC(C)=O)[C@@H]1[C@H](O)[C@@H](C(=O)O)C[C@H]1N=C(N)N [Peramivir, peramivir]
[1]
  IC50 fold-change compared to reference median IC50 values: 2.0–7.8 fold
[2]
  IC50 fold-change compared to reference median IC50 values: 0.9–6.5 fold
[3]
  inhibition category conferred by NA D197N: RI (RI 5 to 50-fold)

## CCOC(=O)C1=C[C@@H](OC(CC)CC)[C@H](NC(C)=O)[C@@H](N)C1 [Oseltamivir, oseltamivir]
[1]
  IC50 fold-change compared to reference median IC50 values: 1.7–10 fold
[2]
  IC50 fold-change compared to reference median IC50 values: 0.6–4.1 fold

## CC(=O)N[C@H]1[C@H]([C@H](O)[C@H](O)CO)OC(C(=O)O)=C[C@@H]1N=C(N)N [Zanamivir, zanamivir]
[1]
  Included in phenotypic analysis: inhibition category (HRI/RI/NI): Yes (RI to zanamivir, oseltamivir, peramivir and laninamivir) (key: NI < 5-fold; RI 5 to 50-fold; HRI > 50-fold)
  IC50 fold-change compared to reference median IC50 values: 0.9–5.3 fold
[2]
  IC50 fold-change compared to reference median IC50 values: 0.7–8.7 fold
[3]
  inhibition category conferred by NA D197N: RI (RI 5 to 50-fold)
